According to ChEMBL document CHEMBL1152318, “Antitumor psoropermum xanthones and sarcomelicope acridones: privileged structures implied in DNA alkylation” (J Nat Prod, 2009):

Assays:
[1] = Cytotoxicity against human KB-3-1 cells; assay type: functional, cell-based
[2] = system: L1210; test: Cytotoxicity against mouse L1210 cells; assay type: functional, cell-based
[3] = system: L1210; test: Ratio of acronycine IC50 to compound IC50 for mouse L1210 cells; assay type: functional
[4] = system: MC-38; test: Antitumor activity against […] cells […] in B6D2F1 mouse assessed as tumor growth at 12.5 mg/kg, ip relative to control; assay type: functional; conditions: route intraperitoneal
[5] = system: P388; test: Antitumor activity against mouse P388 cells xenografted in B6D2F1 mouse assessed as median survival at 50 mg/kg, ip relative to control; assay type: functional; conditions: route intraperitoneal
[6] = system: L1210; test: Ratio of IC50 for human KB-3-1 cells to IC50 for mouse L1210 cells; assay type: functional
[7] = system: P388; test: Antitumor activity against mouse P388 cells xenografted in B6D2F1 mouse assessed as median survival at 12.5 mg/kg, ip relative to control; assay type: functional; conditions: route intraperitoneal
[8] = system: P388; test: Antitumor activity against mouse P388 cells xenografted in B6D2F1 mouse assessed as median survival at 25 mg/kg, ip relative to control; assay type: functional; conditions: route intraperitoneal
[9] = system: NCI-H460; test: Antitumor activity against human NCI-H460 cells xenografted in BALB/c nude mouse administered twice 6.25 mg/kg, iv relative to control; assay type: functional
[10] = system: A549; test: Antitumor activity against human A549 cells xenografted in BALB/c nude mouse assessed as increase in survival administered twice by intravenous route; assay type: functional, cell-based
[11] = system: MC-38; test: Antitumor activity against […] cells […] in B6D2F1 mouse assessed as inhibition of tumor growth at 6.25 mg/kg, ip; assay type: functional; conditions: MC-38, ip, route intraperitoneal, read-out: TGI
[12] = system: MC-38; test: Antitumor activity against […] cells […] in B6D2F1 mouse assessed as tumor growth at 6.25 mg/kg, ip relative to control; assay type: functional; conditions: route intraperitoneal
[13] = system: IGROV-1; test: Antitumor activity against human IGROV1 cells xenografted in BALB/c nude mouse administered twice 6.25 mg/kg, iv relative to control; assay type: functional
[14] = system: IGROV-1; test: Antitumor activity against human IGROV1 cells xenografted in BALB/c nude mouse assessed as increase in survival administered twice by intravenous route; assay type: functional, cell-based
[15] = system: NCI-H460; test: Antitumor activity against human NCI-H460 cells xenografted in BALB/c nude mouse assessed as increase in survival administered twice by intravenous route; assay type: functional, cell-based
[16] = system: OVCAR-3; test: Antitumor activity against human OVCAR-3 cells xenografted in BALB/c nude mouse assessed as increase in survival administered twice by intravenous route; assay type: functional, cell-based
[17] = system: MC-38; test: Antitumor activity against […] cells […] in B6D2F1 mouse assessed as tumor growth at 200 mg/kg, ip relative to control; assay type: functional; conditions: route intraperitoneal
[18] = system: P388; test: Antitumor activity against mouse P388 cells xenografted in B6D2F1 mouse assessed as median survival at 200 mg/kg, ip relative to control; assay type: functional; conditions: route intraperitoneal
[19] = system: HCT-116; test: Cytotoxicity against human HCT116 cells; assay type: functional, cell-based
[20] = system: SGC-7901; test: Cytotoxicity against human SGC7901 cells; assay type: functional, cell-based
[21] = system: SMMC-7721; test: Cytotoxicity against human SMMC7721 cells; assay type: functional, cell-based
[22] = system: A-431; test: Cytotoxicity against human A431 cells by MTT assay; assay type: functional, cell-based
[23] = system: HeLa; test: Cytotoxicity against human HeLa cells by MTT assay; assay type: functional, cell-based
[24] = system: MCF7; test: Cytotoxicity against human MCF7 cells by MTT assay; assay type: functional, cell-based
[25] = Cytotoxicity against human 9KB cells; assay type: functional, cell-based
[26] = system: P388; test: In vivo cytotoxicity against mouse P388 cells at 8 mg/kg relative to control; assay type: functional
[27] = Homo sapiens, A-431, read-out: IC50
[28] = Homo sapiens, HeLa, read-out: IC50

**Q.** For COc1cc2c(c3c1c(=O)c1cc4ccccc4cc1n3C)C[C@H]([C@@]1(C)CO1)O2, which IC50 [1] is on record?
**A.** 0.01 µM

**Q.** What about the IC50 [2] of the same compound?
**A.** 0.01 µM

**Q.** For COc1cc2c(c3c1c(=O)c1cc4ccccc4cc1n3C)C[C@H]([C@]1(C)CO1)O2, which IC50 [1] is on record?
**A.** 0.01 µM

**Q.** What about the IC50 [2] of the same compound?
**A.** 0.01 µM

**Q.** Which results are given for COc1cc2c(c3c1c(=O)c1ccccc1n3C)[C@@H](OC(C)=O)[C@@H](OC(=O)c1ccccc1)C(C)(C)O2 (racemic)?
**A.** Ratio IC50 [3]: 5; T/C [4]: 13%; T/C [5]: 201%

**Q.** Which “Ratio IC50” value [6] does the source give for CCC(=O)O[C@@H]1c2c(cc(OC)c3c(=O)c4c5ccccc5ccc4n(C)c23)OC(C)(C)[C@@H]1OC(=O)CC (racemic) here?
**A.** 3

**Q.** With COc1cc2c(c3c1c(=O)c1c4ccccc4ccc1n3C)[C@@H](OC(=O)CC(C)C)[C@@H](OC(=O)CC(C)C)C(C)(C)O2 (racemic) as the compound, how does the “Ratio IC50” value [6] read?
**A.** 3

**Q.** For COc1cc2c(c3c1c(=O)c1cc4ccccc4cc1n3C)[C@@H](OC(=O)CC(C)C)[C@@H](OC(=O)CC(C)C)C(C)(C)O2 (racemic), which “Ratio IC50” value [6] is on record?
**A.** 3

**Q.** For COc1cc2c(c3c1c(=O)c1cc4ccccc4cc1n3C)[C@@H](OC(C)=O)[C@@H](OC(=O)CC(C)C)C(C)(C)O2 (racemic), which “Ratio IC50” value [6] is on record?
**A.** 3

**Q.** For CCC(=O)O[C@@H]1c2c(cc(OC)c3c(=O)c4cc5ccccc5cc4n(C)c23)OC(C)(C)[C@@H]1OC(=O)CC (racemic), which “Ratio IC50” value [6] is on record?
**A.** 3

**Q.** With COc1cc2c(c3c1c(=O)c1c4ccccc4ccc1n3C)[C@@H](OC(C)=O)[C@@H](OC(C)=O)C(C)(C)O2 (racemic) as the compound, how does the “Ratio IC50” value [6] read?
**A.** 3

**Q.** For COc1cc2c(c3c1c(=O)c1c4ccccc4ccc1n3C)[C@@H](OC(C)=O)[C@@H](OC(=O)CC(C)C)C(C)(C)O2 (racemic), which “Ratio IC50” value [6] is on record?
**A.** 3

**Q.** With COc1cc2c(c3c1c(=O)c1ccccc1n3C)[C@@H](OC(C)=O)[C@H](OC(C)=O)C(C)(C)O2 (racemic) as the compound, how does the T/C [7] read?
**A.** 181%

**Q.** With COc1cc2c(c3c1c(=O)c1ccccc1n3C)[C@@H](OC(C)=O)[C@@H](OC(C)=O)C(C)(C)O2 (racemic) as the compound, how does the “Ratio IC50” value [3] read?
**A.** 5

**Q.** And the T/C [4]?
**A.** 0%

**Q.** What about the T/C [8] of the same compound?
**A.** 289%

**Q.** Which results are given for COc1cc2c(c3c1c(=O)c1cc4ccccc4cc1n3C)[C@@H](OC(C)=O)[C@@H](OC(C)=O)C(C)(C)O2 (racemic)?
**A.** T/C [7]: 327%; T/C [9]: 162%; Ratio IC50 [6]: 3; Activity [10]: Dose-dependent effect; inhibition in vivo at 6.25 mg/kg [11]: 96%; T/C [12]: 4%; T/C [13]: 193%; Activity [14]: Dose-dependent effect; Activity [15]: Dose-dependent effect; Activity [16]: Dose-dependent effect

**Q.** With COc1cc2c(c3c1c(=O)c1ccccc1n3C)C=CC(C)(C)O2 [ACRONINE] as the compound, how does the T/C [17] read?
**A.** 4%

**Q.** What about the T/C [18] of the same compound?
**A.** 125%

**Q.** For COc1cc2c(c3c1c(=O)c1c4ccccc4ccc1n3C)C=CC(C)(C)O2 [BENZO[A]ACRONYCINE], which “Ratio IC50” value [3] is on record?
**A.** 4

**Q.** For COc1cc2c(c3c1c(=O)c1cc4ccccc4cc1n3C)C=CC(C)(C)O2 [BENZO[B]ACRONYCINE], which “Ratio IC50” value [3] is on record?
**A.** 4

**Q.** With COc1cc2c(c3c1c(=O)c1ccc4ccccc4c1n3C)C=CC(C)(C)O2 [BENZO[C]ACRONYCINE] as the compound, how does the IC50 [2] read?
**A.** 12.1 µM

**Q.** Which IC50 [19] does the source give for C=CC(C)(C)c1c(O)cc(O)c2c(=O)c3c(CC=C(C)C)c(O)c(O)cc3oc12 [CUDRATRICUSXANTHONE A] here?
**A.** 4 µM

**Q.** And the IC50 [20]?
**A.** 4 µM

**Q.** And the IC50 [21]?
**A.** 4 µM

**Q.** For COCC(C)(O)C1Cc2c(cc(O)c3c(=O)c4ccccc4n(C)c23)O1 (centres undefined) [GRAVACRIDONDIOLMONOMETHYL ETHER], which IC50 [22, 27] is on record?
**A.** 3 µM

**Q.** What about the IC50 [23, 28] of the same compound?
**A.** 3 µM

**Q.** What about the IC50 [24] of the same compound?
**A.** 3 µM

**Q.** With Cn1c2ccccc2c(=O)c2c(O)cc3c(c21)CC(C(C)(O)CO)O3 (centres undefined) [GRAVACRIDONDIOL] as the compound, how does the IC50 [22, 27] read?
**A.** 3 µM

**Q.** What about the IC50 [23, 28] of the same compound?
**A.** 3 µM

**Q.** What about the IC50 [24] of the same compound?
**A.** 3 µM

**Q.** Which results are given for Cn1c2ccccc2c(=O)c2c(O)cc3c(c21)CC(C(O)(CO)CO)O3 (centres undefined) [GRAVACRIDONTRIOL]?
**A.** IC50 ([22]; a-431): Active; IC50 ([23]; hela): Active

**Q.** For COc1cc2c(c3oc4c(O)cccc4c(=O)c13)C[C@H]([C@@]1(C)CO1)O2 [PSOROSPERMIN], which IC50 [25] is on record?
**A.** 0.29 µM

**Q.** What about the T/C [26] of the same compound?
**A.** 158%

**Q.** With C=C(C)[C@H]1Cc2c(cc(O)c3c(=O)c4ccccc4n(C)c23)O1 [RUTACRIDONE] as the compound, how does the IC50 [22, 27] read?
**A.** 3 µM

**Q.** And the IC50 [23, 28]?
**A.** 3 µM

**Q.** And the IC50 [24]?
**A.** 3 µM
